# Where two headings read alike, the source gives them in different places.
# Columns and labels:
# [1] = Human hepatic intrinsic clearance (CLint) assay in human hepatocytes; format: in vitro ADME; details: human, human hepatocytes in suspension, pH 7.4, human hepatocytes
# Source text: The hepatic metabolic component of human clearance is predicted from scaled in vitro intrinsic clearance (CLint) data from human hepatocytes (see Chem Biol Interact. 2007, 168(1), 2-15) and from the extent of human blood binding, primarily due to plasma protein binding. The well stirred model of the liver is a model for predicting blood clearance in the liver from intrinsic clearance (CLint) determined using hepatocytes. (see Drug Metab Dispos. 2005, 33(9), 1304-11) The model is usually written as:
# Human Hepatic Intrinsic Clearance (CLint) Assay
# For the majority of drugs, a large component of their plasma clearance is contributed by hepatic metabolism. Intrinsic clearance (CLint) is a measure of the potential of a compound to undergo metabolism and can be related to hepatic clearance in vivo from a consideration of plasma protein binding and liver blood flow. Therefore, CLint may be used as an index of the relative metabolic stability of compounds within a project and compared with other external probe substrates. Furthermore, the measurement of CLint in vitro within a research project, where hepatic metabolic clearance is known to be an issue, may be a useful means of understanding the different pharmacokinetic behaviour of the compounds in vivo.
# This following description outlines a method for estimating intrinsic clearance (CLint) from human hepatocyte incubations using suspension buffer containing no HSA (human serum albumin) and maintaining physiological conditions of pH 7.4.
# Hepatocytes were prepared by a two-step in situ collagenase perfusion method of a portion of the human liver, suspended in protein free buffer (see below) and stored on ice, prior to incubation.
# This method is based on the procedure of Seglen (Preparation of rat liver cells. I. Effect of Ca^2+ on enzymatic dispersion of isolated, perfused liver. Exptl. Cell Res., 1972, 74, p450 and preparation of isolated rat liver cells. Methods Cell Biol., 1976, 13, p 29) which itself was developed from the one step procedure of Berry and Friend (High-yield preparation of isolated rat liver parenchymal cells. J. Cell Biol., 1969, 43, p 506).
# Suspension medium: 2.34 g Na HEPES, 2.0 g HSA fraction V, 0.4 g D-fructose, DMEM (1 L powder equivalent, Sigma; w/1 g.1^−1 glucose, w/Na pyruvate, w/o NaHCO3, w/o phenol red), made up to 1 L with Milli-Q water, pH to 7.4 with 1 M HCl. (Protein free suspension buffer is made omitting the 2.0 g HSA fraction V)
# The capsule of a liver which has been perfused with digestion medium was cut open and the cells gently teased out into the medium. The cells were then passed through a mesh (approximately 250 μM) into a beaker containing 50 ml suspension medium. The mesh was rinsed through into the beaker with further suspension buffer to a final volume of 100 ml. The suspension was divided between two plastic 50 mL centrifuge tubes (pre-cooled on ice) and centrifuged at 50×g for 2 min at 4° C. The supernatants were decanted and the pellets re-suspended in protein free suspension buffer to the original volume. The centrifugation step was repeated and each pellet re-suspended in approximately 10 ml protein free suspension buffer. The suspensions were combined and the volume made up to 50 mL with protein free suspension buffer.
# An aliquot of cell suspension (0.2 mL) was diluted with 0.2 ml protein free suspension buffer. To the diluted cells was added 0.2 mL trypan blue solution (0.4% w/v) followed by gentle mixing. After 1 min, a pasteur pipette was used to withdraw a sample and fill an Improved Neubauer Counting Chamber by capillary action. The cells were then counted (central square only) using an inverted microscope, viable cells being able to exclude the dye and non-viable cells being stained. The percentage of viable cells in the preparation was calculated thus: […]
# [2] = Measurement of solubility (S); format: physicochemical; details: thermodynamic from solid; saturated solution, shaken overnight at 20° C.
# Source text: Measurement of Solubility (S)
# The solubility of a compound is an important property affecting the preparation of solutions of the compound for screening, as well as influencing absorption of solid doses of the compound in animal and human studies. The method described below for measuring the solubility involves the generation of a saturated solution of the compound, followed by assaying the solution using HPLC with UV quantification and MS identification.
# Saturated solutions for determining the solubility were prepared by placing about 0.3-3.0 ml of solvent in glass screw-top sample tubes along with some of the compound. The tubes are then shaken overnight in the constant temperature room (20° C.). After shaking, undissolved material should be present in the solution, and more was added and shaking continued if this was not the case. The samples were then transferred to a centrifuge tube and centrifuged using a Heraeus Biofuge Fresco centrifuge at 13000 rpm for about 30 minutes. The supernatant was then removed, placed in a new centrifuge tube and centrifuged again for about 30 minutes at 13000 rpm. The undissolved material formed a pellet at the bottom of the tube and the liquid above the pellet was removed for assaying. The solution was then analysed using HPLC with UV quantification. If the response for the compound is very strong then the solution should be accurately diluted such that the response lies within a more suitable range of UV response. A standard was also prepared by accurately weighing a sample of the compound and dissolving it in a suitable volume of a solvent that dissolves it completely (typically, DMSO, ethanol or methanol). This sample was then analysed by HPLC/UV. Again the response of this standard should lie within a suitable range of UV response otherwise a more appropriate concentration should be prepared and analysed by HPLC/UV.
# The solubility (S) was calculated from the observed peak areas in the HPLC/UV chromatograms along with corrections for any dilutions of the sample and differences in injection volumes. The following equation was used: […]
# [3] = protein free suspension buffer, pH 7.4, 37° C., read-out: Human hepatocyte Intrinsic-clearance assay CLint
# [4] = unit inferred, read-out: hepatic intrinsic clearance (Clint)
Structure (SMILES),"hepatocyte CLint at 1 µM [1, 3] [µL/min/1e6 cells]",solubility [2] [µg/mL],"hepatocyte CLint at 1 µM [1, 4] [µL/min/1e6 cells]"
CS(=O)(=O)Nc1cc(NC(CO)CO)nc(SCc2ccccc2)n1 [Example 21],2.3,,2.3
Cc1cccc(CSc2nc(N[C@H](C)CO)cc(NS(C)(=O)=O)n2)c1F [Example 39],5.1,342,

# Other lines, results leading:
"hepatocyte CLint at 1 µM [1, 3] [µL/min/1e6 cells]",solubility [2] [µg/mL],"hepatocyte CLint at 1 µM [1, 4] [µL/min/1e6 cells]",Structure (SMILES)
12,372,,Cc1ccc(CSc2nc(N[C@H](C)CO)cc(NS(=O)(=O)N3CCC3)n2)c(F)c1C [Example 41]
9,,,Cc1cccc(CSc2nc(N[C@H](C)CO)cc(NS(=O)(=O)N3CCC3)n2)c1F [Example 40]
2.1,317,2.1,"C[C@@H](Nc1cc(NS(=O)(=O)N2CCC2)nc(SCc2cccc(F)c2F)n1)[C@@H](O)CO [Example 1, N-(2-[(2,3-difluorobenzyl)thio]-6-{[(1R,2R)-2,3-dihydroxy-1-methylpropyl]amino}pyrimidin-4-yl)azetidine-1-sulfonamide]"
